Measurements from PubChem BioAssay (NCI).
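Grown in 96-well plates, cells were treated for 48 hours with each compound at five concentrations. Insufficient inhibition: endpoint recorded as highest concentration tested. TGI denotes the concentration required for complete inhibition of growth.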

Key:
Experiment in all cases: growth of human tumour cells (NCI), 48 h
COLO 205 colon = system: COLO 205 colon
HCT-116 colon = system: HCT-116 colon
HL-60(TB) leukemia = system: HL-60(TB) leukemia
HOP-62 NSCLC = system: HOP-62 NSCLC
HOP-92 NSCLC = system: HOP-92 NSCLC
KM12 colon = system: KM12 colon
NCI-H522 lung = system: NCI-H522 lung
OVCAR-5 ovarian = system: OVCAR-5 ovarian
SF-539 CNS = system: SF-539 CNS
SK-MEL-2 melanoma = system: SK-MEL-2 melanoma
SK-MEL-28 melanoma = system: SK-MEL-28 melanoma
TK-10 renal = system: TK-10 renal
U251 CNS = system: U251 CNS
HCC-2998 colon = system: HCC-2998 colon
MCF7 breast = system: MCF7 breast
NCI/ADR-RES ovarian = system: NCI/ADR-RES ovarian

| Structure (SMILES) | TGI (COLO 205 colon) [µM] | TGI (HCT-116 colon) [µM] | TGI (HL-60(TB) leukemia) [µM] | TGI (HOP-62 NSCLC) [µM] | TGI (HOP-92 NSCLC) [µM] | TGI (KM12 colon) [µM] | TGI (NCI-H522 lung) [µM] | TGI (OVCAR-5 ovarian) [µM] | TGI (SF-539 CNS) [µM] | TGI (SK-MEL-2 melanoma) [µM] | TGI (SK-MEL-28 melanoma) [µM] | TGI (TK-10 renal) [µM] | TGI (U251 CNS) [µM] | TGI (HCC-2998 colon) [µM] | TGI (MCF7 breast) [µM] | TGI (NCI/ADR-RES ovarian) [µM] |
| --- | --- | --- | --- | --- | --- | --- | --- | --- | --- | --- | --- | --- | --- | --- | --- | --- |
| O/N=C/c1ncccc1C1OCCO1 | > 100 | > 100 | > 100 | > 100 | > 100 | > 100 | > 100 | > 100 | > 100 | > 100 | > 100 | > 100 | > 100 |  |  |  |
| CCOCc1c(C)cc(C)c(C2C(C(=O)c3ccccc3)N3c4ccccc4C=CC3C2(C#N)C(=O)OCC)c1C (stereo not drawn) | 53.7 | > 100 | > 100 |  |  | 54.9 |  | > 100 |  |  | > 100 |  | > 100 | 47.8 | > 100 | > 100 |
| Oc1c2cc(Cl)cc1COCc1cc(Cl)cc(c1O)COCc1cc(Cl)cc(c1O)COC2 | > 100 | > 100 | 8.43 | > 100 | 92.2 | > 100 |  | > 100 |  | > 100 | > 100 | > 100 | > 100 | > 100 | > 100 | > 100 |
| CC1OC(OC2C(OC(=O)[C@]34CCC(C)(C)CC3C3=CCC5[C@@]6(C)C[C@H](O)[C@H](OC7OC(CO)C(O)C(O)C7N)[C@@](C)(C(=O)O)C6CC[C@@]5(C)C3(C)CC4)OCC(O)C2O)C(O)C(O)C1OC1OCC(O)C(O)C1O (stereo partly drawn) | > 100 |  | > 100 | > 100 | > 100 | > 100 | > 100 | > 100 | > 100 | > 100 | > 100 | > 100 | > 100 | > 100 |  |  |
| O=C(Cn1c2c(c3ccccc31)CCCC2)N1CCCC1 | > 100 | > 100 | > 100 | > 100 | > 100 |  |  | > 100 | > 100 | > 100 | > 100 | > 100 |  | > 100 | > 100 | > 100 |
| Cc1cccc(C(C)C)c1NC(=O)/C(Cc1c([N+](=O)[O-])cccc1[N+](=O)[O-])=N/NC(=O)CC#N | > 100 | > 100 | > 100 |  | > 100 | > 100 | > 100 | > 100 | > 100 | > 100 | > 100 | > 100 |  | > 100 |  |  |
| O=c1[nH]c(=O)n(CCOc2ccccc2)cc1Nc1ccccc1 | > 100 | > 100 |  | 87.4 | > 100 | > 100 | > 100 | > 100 |  |  | > 100 |  | > 100 | > 100 | > 100 | > 100 |
| NC(=S)N1N=C2c3ccccc3CC[C@@H]2[C@@H]1c1ccccc1 | 16.8 | 19.1 | 10.5 | > 59.1 | 47.2 | 31 | 4.53 | 99.9 | 22.3 | > 48.5 |  | > 68 | 21.6 | > 55.7 |  |  |
| O=C(NC12CC3CC(CC(F)(C3)C1)C2)c1ccccc1 | > 100 | > 100 | > 100 | > 100 | > 100 | > 100 | > 100 | > 100 | > 100 | > 100 | > 100 | > 100 | > 100 | > 100 |  |  |
| NC(=O)COC(=O)c1c(Cl)nc2sccn12 | > 100 | > 31.6 | > 81.8 | > 100 | > 100 | > 100 | > 100 | > 100 | > 100 | > 100 | > 100 | > 100 | > 100 | > 100 |  |  |
| CCN(CC)CCn1nc(N)c2nc3ccccc3nc21 |  | > 100 | > 100 | > 100 | > 100 | > 100 | > 100 | > 100 | > 100 | > 100 | > 100 | > 100 | > 100 | > 100 | > 100 | > 100 |
| O=C(CCN(C(=O)O)S(=O)(=O)c1ccc(NC(=O)c2ccccc2)cc1)NC1CCCCC1 | > 100 | > 100 | 94.6 | > 100 | > 100 | > 100 | > 100 | > 100 | > 100 | > 100 | > 100 | > 100 | > 100 | > 100 |  |  |
| COc1ccc2c(c1)C(=O)Cc1ccccc1CC2 | > 100 | > 100 | > 100 |  | > 100 | > 100 | > 100 | > 100 | > 100 | > 100 | > 100 | > 100 | > 100 | > 100 |  |  |
| CCOC(=O)/C(=C\c1ccccc1)C(=O)O | > 100 | > 100 | > 100 | > 100 | > 100 | > 100 | > 100 | > 100 | > 100 | > 100 | > 100 |  | > 100 | > 100 |  |  |
